# Key:
# [1] = target: T1, fructose-1,6-bisphosphatase (LmFBPase) (Leishmania major, UniProt O97193); set-up: gene FBP
# T1 sequence (O97193 1-351): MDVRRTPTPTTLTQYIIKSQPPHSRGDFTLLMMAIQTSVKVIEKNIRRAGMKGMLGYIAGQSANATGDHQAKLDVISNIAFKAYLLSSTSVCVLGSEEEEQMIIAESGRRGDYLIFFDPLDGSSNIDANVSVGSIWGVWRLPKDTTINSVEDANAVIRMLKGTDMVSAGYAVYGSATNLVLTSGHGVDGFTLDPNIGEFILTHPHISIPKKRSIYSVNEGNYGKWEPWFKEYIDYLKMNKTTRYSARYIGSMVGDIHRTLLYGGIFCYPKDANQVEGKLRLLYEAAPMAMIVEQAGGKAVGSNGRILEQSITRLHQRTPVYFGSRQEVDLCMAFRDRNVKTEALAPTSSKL
# [2] = target: T2, fructose-1,6-bisphosphatase (LmFBPase) (Leishmania major, UniProt O97193); assay: PGI/G6PDH coupled enzyme activity assay; format: biochemical
# T2 construct: gene FBP; C-terminal His6-tagged LmFBPase
# [3] = target: T1, fructose-1,6-bisphosphatase (LmFBPase); assay: co-crystal structure ([…] Å) with F6P; coupled enzyme assay Ki; format: biochemical; set-up: gene FBP; C-terminal His6-tagged LmFBPase, homotetramer
# [4] = target: T1, fructose-1,6-bisphosphatase (LmFBPase); assay: co-crystal structure ([…] Å) with AMP; thermal shift; format: binding; set-up: gene FBP; C-terminal His6-tagged LmFBPase, homotetramer
smiles,measurement,setting,value
O=P(O)(O)O [phosphate],co-crystal structure (2.8 Å) with Mn2+,[1],a catalytic product Pi and manganese atoms were found in each active site
"O=P(O)(O)OC[C@H]1O[C@@](CO)(OP(=O)(O)O)[C@@H](O)[C@@H]1O [Fructose 2,6-bisphosphate]",Ki,[2],1.9 µM
Nc1ncnc2c1ncn2[C@@H]1O[C@H](COP(=O)(O)O)[C@@H](O)[C@H]1O [AMP],Ki,[3],63.8 µM
O=P(O)(O)OC[C@H]1OC(O)(CO)[C@@H](O)[C@@H]1O (stereo partly shown) [fructose 6-phosphate],co-crystal structure (2.62 Å) with AMP; thermal shift,[4],The catalytic product F6P was found in each of the active sites of the four subunits
